Consider four compounds from publication PMC8121805, “Discovery of first-in-class inhibitors of ASH1L histone methyltransferase with anti-leukemic activity” (Nature Communications, 2021).

Where “and” joins values, the source holds several entries; their conditions need not be identical. Equal values may be shown once.

In assay [1] the target is ASH1L (amino acids 2046–2330) (Homo sapiens, UniProt Q9NR48). The experiment in a line: Histone methyltransferase (HMT) assay. Conditions: for IC50: IC50, HMT assay with nucleosomes as substrate, mean ± s.d. from two independent experiments.
Description: The mixtures of ASH1L and compounds were incubated at room temperature for 1 h. […] The reaction was continued for 1 h at room temperature, then quenched by addition of 10% Trichloroacetic acid (TCA) and then transferred to 96-well filter plates (Millipore sigma, MSFBN6B), washed twice with 10% TCA and then once with 200-proof ethanol. After extensive drying, 70 µL of Microscint-O scintillant (PerkinElmer) was added and counts per minute (CPM) were measured using a MicroBeta microplate counter (PerkinElmer). Titration curves were plotted using Prism (GraphPad Prism 8.0.0.) and IC50 values were calculated.
Assay [2] addresses ASH1L SET domain (2069–2288) (Homo sapiens, UniProt Q9NR48). The experiment in a line: Isothermal titration calorimetry (ITC). Conditions: for kcal/mole of injectant: ITC isotherm.
Description: All samples were extensively degassed by vacuum aspiration for 20 min prior to measurements. […] All titration data were analyzed with a single-site fitting model using Origin 7.0.
The mark [3] stands for this setting: Log[compound] (M) -5.30642 (4: -5.30643).

As a reminder, the IC50 is the concentration at which inhibition is half-maximal. In general, Kd refers to the constant that tells how readily two partners part at equilibrium. As for `NCc1ccc2c(-c3cccc(C(N)=S)c3)cn(CCO)c2c1` [AS-5], the “improvement of the activity versus the original fragment hit” value in assay [1] is on record as “over 200 fold”. Besides, in assay [1], half-maximal inhibition (IC50) was put at 4 µM. Further, the “% activity” value in assay [1] (Log[compound] (M) -3.69897) is 2.662% and 1.923%; in assay [1] (Log[compound] (M) -4.17609) it was 6.814% and 8.134%; in assay [1] (Log[compound] (M) -4.65321), 17.9312% and 20.7044%; in assay [1] (Log[compound] (M) -5.13033), 34.0137% and 31.5644%; in assay [1] (Log[compound] (M) -5.60746), 45.8867% and 60.6988%; in assay [1] (Log[compound] (M) -6.08458), 80.7749% and 70.6538%. The “% activity” value in assay [1] (Log[compound] (M) -6.5617) was 92.8804% and 81.5471%; in assay [1] (Log[compound] (M) -7.03882), 105.285% and 87.6496%. This compound yielded a Kd in assay [2] of 6.2 µM. For the same compound, the “N (stoichiometry of binding)” value in assay [2] (ITC) turned out to be 1.1. In addition, the kcal/mole of injectant was -11648.3 kcal/mol in assay [2] (ASH1L-AS-5 molar ratio 0.12083); -13231.7 kcal/mol in assay [2] (ASH1L-AS-5 molar ratio 0.18186); -11678.6 kcal/mol in assay [2] (ASH1L-AS-5 molar ratio 0.2433); -11475.1 kcal/mol in assay [2] (ASH1L-AS-5 molar ratio 0.30515); -11317.2 kcal/mol in assay [2] (ASH1L-AS-5 molar ratio 0.36741); -10998.9 kcal/mol in assay [2] (ASH1L-AS-5 molar ratio 0.43008). Besides, the kcal/mole of injectant in assay [2] (ASH1L-AS-5 molar ratio 0.49316) is -10679.7 kcal/mol; in assay [2] (ASH1L-AS-5 molar ratio 0.55666), -10389.6 kcal/mol; in assay [2] (ASH1L-AS-5 molar ratio 0.62056) it was -10042.7 kcal/mol; in assay [2] (ASH1L-AS-5 molar ratio 0.68487), -9579.7 kcal/mol; in assay [2] (ASH1L-AS-5 molar ratio 0.7496), -9123.74 kcal/mol; in assay [2] (ASH1L-AS-5 molar ratio 0.81473), -8548.86 kcal/mol. The kcal/mole of injectant in assay [2] (ASH1L-AS-5 molar ratio 0.88027) is -7938.47 kcal/mol; in assay [2] (ASH1L-AS-5 molar ratio 0.94623), -7340.59 kcal/mol; in assay [2] (ASH1L-AS-5 molar ratio 1.0126), -6928.78 kcal/mol; in assay [2] (ASH1L-AS-5 molar ratio 1.07937) it was -5852.59 kcal/mol; in assay [2] (ASH1L-AS-5 molar ratio 1.14656) it was -5058.91 kcal/mol; in assay [2] (ASH1L-AS-5 molar ratio 1.21416) it was -4429.92 kcal/mol. The kcal/mole of injectant was -3902.54 kcal/mol in assay [2] (ASH1L-AS-5 molar ratio 1.28216); -3390.49 kcal/mol in assay [2] (ASH1L-AS-5 molar ratio 1.35058); -2944.08 kcal/mol in assay [2] (ASH1L-AS-5 molar ratio 1.41941); -2536.04 kcal/mol in assay [2] (ASH1L-AS-5 molar ratio 1.48865); -2250.86 kcal/mol in assay [2] (ASH1L-AS-5 molar ratio 1.5583); -1941.24 kcal/mol in assay [2] (ASH1L-AS-5 molar ratio 1.62836). For the same compound, the kcal/mole of injectant is -1790.53 kcal/mol in assay [2] (ASH1L-AS-5 molar ratio 1.69883), -1545.36 kcal/mol in assay [2] (ASH1L-AS-5 molar ratio 1.76971), -1413.63 kcal/mol in assay [2] (ASH1L-AS-5 molar ratio 1.841) and -1226.06 kcal/mol in assay [2] (ASH1L-AS-5 molar ratio 1.9127).

With `NC(=S)c1cccc(-c2c[nH]c3ccccc23)c1` [compound 2], the half-maximal inhibitory concentration (IC50) in assay [1] is 50 µM and 50.5 µM. Moreover, the “% activity” value is -0.3683% and -0.3506% in assay [1] (Log[compound] (M) -2.92082); 16.0357% and 15.8766% in assay [1] (Log[compound] (M) -3.39794); 38.4321% and 41.7641% in assay [1] (Log[compound] (M) -3.87506); 49.8512% and 57.5848% in assay [1] (Log[compound] (M) -4.35218); 59.6441% and 71.2665% in assay [1] (Log[compound] (M) -4.8293); 79.3978% and 82.615% in assay [1] (setting [3]). In addition, the “% activity” value was 85.6112% and 97.322% in assay [1] (Log[compound] (M) -5.78355); 88.298% and 98.5328% in assay [1] (Log[compound] (M) -6.26067).

`NC(=S)c1cccc(-c2cn(CCO)c3ccccc23)c1` [compound 3] gave a 50% inhibitory concentration (IC50) in assay [1] of 15 µM. In addition, the “% activity” value in assay [1] (Log[compound] (M) -3.69897) is 9.186% and 9.699%; in assay [1] (Log[compound] (M) -4.17609), 18.9348% and 13.291%; in assay [1] (Log[compound] (M) -4.65321), 40.9235% and 30.2223%; in assay [1] (Log[compound] (M) -5.13033), 68.7027% and 45.0281%; in assay [1] (Log[compound] (M) -5.60746), 106.01% and 80.1368%; in assay [1] (Log[compound] (M) -6.08458), 97.0728% and 88.0528%. Further, the “% activity” value in assay [1] (Log[compound] (M) -6.5617) is 107.183% and 116.125%.

For the compound `NCc1ccc2c(-c3cccc(C(N)=S)c3)c[nH]c2c1` [compound 4], in assay [1], the IC50 is 23 µM and 23.5 µM. Also, the “% activity” value in assay [1] (Log[compound] (M) -3.39794) was 6.033% and 2.5275%; in assay [1] (Log[compound] (M) -3.87506) it was 27.0096% and 20.8578%; in assay [1] (Log[compound] (M) -4.35218), 40.1717% and 36.6844%; in assay [1] (Log[compound] (M) -4.8293), 67.3184% and 49.0775%; in assay [1] (setting [3]), 79.0319% and 80.9812%; in assay [1] (Log[compound] (M) -5.78355), 102.423% and 86.0958%. The “% activity” value in assay [1] (Log[compound] (M) -6.26067) is 109.022% and 106.93%; in assay [1] (Log[compound] (M) -6.73779) it was 106.089% and 90.3699%.
